Source: patent US10662174B2, “BTK inhibitor” (Hubei Bio-Pharmaceutical Industrial Technological Institute …, priority 2015, dated 2020)
Read-outs that look alike come from different tables or passages of the source.

Molecular target: T1, BTK kinase (Homo sapiens, UniProt Q06187)
T1 construct: purchased Invitrogen PR5442A
Experiment: Assay of inhibition activity of BTK in vitro (HTRF kit, read on Envision)
Format: biochemical
Experimental: Assay of Inhibition Activity of BTK In Vitro
The inhibition of compounds on BTK kinase was evaluated by […] detected by Envision, using the IC50 value of the compounds as index.
BTK kinase: Invitrogen-PR5442A
HTRF Assay Kit: Cisbio-62TKOPEJ
Plate for compound preparation: Greiner-781280
Cisbio HTRF Kit: Cisbio-62TKOPEJ
Centrifuge: Eppendorf-5810R
Bravo: Agilent Technologies-Bravo
Gradient Dilution of Compounds: […]
The test compound was dissolved with DMSO to be of 1 mM as a stock solution. Such a stock solution was diluted with DMSO by 10-fold, thereby obtaining an initial solution in a concentration of […] which was added into wells at the second column in a plate. 20 μL DMSO was added to other wells using Bravo. Then, 10 μL of the initial solution was transferred from wells at the second column to wells at the third column, followed by mixing obtained solution in the wells at the third column, thereby obtain a first diluted solution in a concentration of 1/3 μM. Subsequently, 10 μL of the first diluted solution was further transferred from wells at the third column to wells at the fourth column, followed by mixing obtained solution in the wells at the fourth column, thereby obtain a second diluted solution in a concentration of 1/9 μM. Such a three-fold serial dilution was performed 10 times, with 11 solutions in series diluted concentrations and a final diluted solution in a concentration of 0.017 nM obtained.
All diluted solutions were further diluted by 25-fold with ultrapure water, thus obtain test solutions, which were equilibrated at r.t. for 30 min before use.
To 2.5 μL of test solution, which was pipetted into each well of Assay plate using Bravo, 5 μL kinase mixture was added using the multi-channel pipettor. The mixture was centrifuged at 1000 rpm for 20 s, followed by incubation at 23° C. for 30 min. The reaction was initiated by 2.5 μL ATP mixture which was pipetted into the wells by Multidrop.
The reaction mixture of BTK kinase (10 μL) included 1.0 nM BTK, 1 μM biotin-TK1 peptide and 20 μM ATP. The reaction buffer included 50 mM Hepes (pH7.5), 10 mM MgCl2 and 0.01 mM […]. The kinase mixture was reacted in incubator at 23° C. for 90 mim.
The reaction was stopped by adding 10 μL Detection Reagent to each well of Assay plate, and the plate was left in incubator at 23° C. for 1 h before read on Envision.
Data analysis: The IC50 values of compounds were calculated using Excel fit.

[1] = 1.0 nM BTK, 1 μM biotin-TK1 peptide, 20 μM ATP, 23° C., tested by Envision, read-out: BTK IC50

T1 sequence (Q06187 whole entry): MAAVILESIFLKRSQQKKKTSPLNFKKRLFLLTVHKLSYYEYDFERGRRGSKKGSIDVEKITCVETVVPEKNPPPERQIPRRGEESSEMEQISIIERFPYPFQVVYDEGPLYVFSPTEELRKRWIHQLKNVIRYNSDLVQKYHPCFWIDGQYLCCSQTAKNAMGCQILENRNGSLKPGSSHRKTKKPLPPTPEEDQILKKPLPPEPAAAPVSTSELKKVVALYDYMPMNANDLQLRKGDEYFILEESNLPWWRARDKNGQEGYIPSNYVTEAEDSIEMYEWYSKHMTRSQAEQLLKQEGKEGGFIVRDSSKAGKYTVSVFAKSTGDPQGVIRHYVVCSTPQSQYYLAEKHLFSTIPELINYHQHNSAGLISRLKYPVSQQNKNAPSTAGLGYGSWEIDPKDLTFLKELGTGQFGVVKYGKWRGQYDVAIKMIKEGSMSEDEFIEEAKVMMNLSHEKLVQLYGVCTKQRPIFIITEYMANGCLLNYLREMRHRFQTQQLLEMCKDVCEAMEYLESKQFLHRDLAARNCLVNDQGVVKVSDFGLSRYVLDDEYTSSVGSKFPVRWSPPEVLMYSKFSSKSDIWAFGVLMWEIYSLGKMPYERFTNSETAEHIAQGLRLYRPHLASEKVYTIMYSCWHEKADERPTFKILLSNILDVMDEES

Row | Structure (SMILES) | IC50 [1] [nM] | IC50 [nM]
1 | Cc1ccn2c(=O)c(-c3cccc(-c4cc(Nc5ccc(N6CCN(C)CC6)cn5)c(=O)n(C)c4)c3C)cnc2c1 [Example 6] | 1000 to 10000 | –
2 | C=CC(=O)N1CCCC(n2nc(-c3ccc(Oc4ccccc4)cc3)c3c(N)n[nH]c(=O)c32)C1 (centres unmarked) [Example 20] | < 100 | –
3 | C=CC(=O)N1CCC[C@@H](n2nc(-c3ccc(Oc4ccc(C)nn4)cc3)c3c(N)n[nH]c(=O)c32)C1 [Example 90] | 100 to 1000 | –
4 | C=CC(=O)N1CCC[C@@H](Nc2ncnc(N)c2C(=O)c2ccc(Oc3ccccc3)cc2C)C1 [Example 25] | 100 to 1000 | –
5 | C=CC(=O)Nc1cccc(-n2cnc3cnc(Nc4ccc(Oc5ccccc5)cc4)nc32)c1 [Example 29] | 1000 to 10000 | –
6 | CN1CCN(C)[C@H](c2ccc(Nc3nc(-c4ccc5c(c4)c(C(=O)c4ccc(C6CC6)cc4F)cn5C)cn(C)c3=O)cc2)C1=O [Example 9] | – | 1000 to 10000
7 | C=CC(=O)N1CCCC(n2nc(-c3ccc(Oc4ccccn4)cc3)c3c(N)n[nH]c(=O)c32)C1 (centres unmarked) [Example 68] | < 100 | –
8 | C=CC(=O)N1CCC[C@@H](n2nc(-c3ccc(OC4CC4)cc3)c3c(N)n[nH]c(=O)c32)C1 [Example 33] | < 100 | –
9 | Cc1ccn2c(=O)c(-c3cccc(-c4cc(Nc5ccc(N6CCN(C)CC6)cn5)c(=O)n(C)c4)c3C)ccc2c1 [Example 10] | 1000 to 10000 | –
10 | C=CC(=O)N1CCC[C@H]1Cn1nc(-c2ccc(Oc3ccccc3)cc2)c2c(N)n[nH]c(=O)c21 [Example 37] | < 100 | –
11 | C=CC(=O)N1CCC[C@@H](Nc2ncnc(N)c2C(=O)c2ccc(Oc3ccccc3)cc2F)C1 [Example 26] | 1000 to 10000 | –
12 | C=CC(=O)N1CCC(n2nc(-c3ccc(Oc4ccccc4)cc3)c3c(N)n[nH]c(=O)c32)C1 (centres unmarked) [Example 43] | < 100 | –
13 | C=CC(=O)N[C@H]1CC[C@@H](n2nc(-c3ccc(OC4CC5CC5C4)cc3)c3c(N)n[nH]c(=O)c32)CC1 (some centres unmarked) [Example 41] | < 100 | –
14 | C=CS(=O)(=O)N1CCC[C@@H](n2nc(-c3ccc(Oc4ccccc4)cc3)c3c(N)n[nH]c(=O)c32)C1 [Example 77] | < 100 | –
15 | C=CC(=O)N1CCCC(n2c(=O)c(-c3ccc(Oc4ccccc4)cc3)cc3c(N)ncnc32)C1 (centres unmarked) [Example 30] | 100 to 1000 | –
16 | C=CC(=O)N1CCC[C@@H](n2nc(-c3ccc(Oc4ccccc4)cc3)c3c(N)n[nH]c(=O)c32)C1 [Example 28] | < 100 | –
17 | C=CC(=O)N1CCC[C@@H](Nc2ncnc(N)c2C(=O)c2ccc(N(C)c3ccccc3)cc2)C1 [Example 3] | 1000 to 10000 | –
18 | C=CC(=O)N1CC[C@@H](n2nc(-c3ccc(Oc4ccccc4)cc3)c3c(N)n[nH]c(=O)c32)C1 [Example 60] | < 100 | –
19 | C=CC(=O)N1CCCC(n2nc(-c3ccc(Oc4ccccc4)cc3)c3c(N)nn(C4CC4)c(=O)c32)C1 (centres unmarked) [Example 52] | < 100 | –
20 | C=CC(=O)N1CCC[C@@H](n2nc(-c3ccc(OC4CC5CC5C4)cc3)c3c(N)n[nH]c(=O)c32)C1 (some centres unmarked) [Example 35] | < 100 | –

Row | Structure (SMILES) | IC50 [1] [nM] | IC50 [nM]
21 | C=CC(=O)N1CCCC(Nc2ncnc(N)c2C(=O)c2ccc(Oc3ccccc3)cc2Cl)C1 (centres unmarked) [Example 42] | 100 to 1000 | –
22 | C=CC(=O)N1CCCCC(n2nc(-c3ccc(Oc4ccccc4)cc3)c3c(N)n[nH]c(=O)c32)C1 (centres unmarked) [Example 51] | < 100 | –
23 | C=CC(=O)N1CCCC(n2nc(-c3ccc(Oc4ccccc4C)cc3)c3c(N)n[nH]c(=O)c32)C1 (centres unmarked) [Example 54] | < 100 | –
24 | C=CC(=O)N1CCCC(n2nc(-c3ccc(Oc4ccccc4)nc3)c3c(N)n[nH]c(=O)c32)C1 (centres unmarked) [Example 72] | < 100 | –
25 | C=CC(=O)Nc1ccc2ncn(-c3nc(Nc4ccc(OCCOC)cc4)ncc3F)c2c1 [Example 14] | 1000 to 10000 | –
26 | CN(C)C/C=C/C(=O)N(C)CCn1nc(-c2ccc(Oc3ccccc3)cc2)c2c(N)n[nH]c(=O)c21 [Example 34] | < 100 | –
27 | C=CC(=O)N1CCC[C@@H](n2nc(-c3ccc(OC4CCCC4)cc3)c3c(N)n[nH]c(=O)c32)C1 [Example 79] | < 100 | –
28 | C=CC(=O)N1CCCC(n2nc(-c3ccc(Oc4ccccc4)cc3)c3c(N)nn(CCO)c(=O)c32)C1 (centres unmarked) [Example 50] | 100 to 1000 | –
29 | CC#CC(=O)N1CCC[C@@H](n2nc(-c3ccc(Oc4ccccc4)cc3)c3c(N)n[nH]c(=O)c32)C1 [Example 45] | < 100 | –
30 | C=CC(=O)N1CCC[C@@H](Nc2ncnc(N)c2C(=O)c2ccc(Oc3ccccc3)cc2)C1 [Example 1] | 100 to 1000 | –
31 | CN(C)C/C=C/C(=O)N1CCC[C@@H](n2nc(-c3ccc(Oc4ccccc4)cc3)c3c(N)n[nH]c(=O)c32)C1 [Example 81] | < 100 | –
32 | C=CC(=O)N1CC2(CC(n3nc(-c4ccc(Oc5ccccc5)cc4)c4c(N)n[nH]c(=O)c43)C2)C1 [Example 46] | < 100 | –
33 | Cc1c(-c2cc(Nc3ccc(C4C(=O)NCCN4C)cc3)c(=O)n(C)c2)cccc1-c1ccc(-c2ccccc2)n(C)c1=O (centres unmarked) [Example 12] | 1000 to 10000 | –
34 | C=CC(=O)N1CCCC(n2nc(-c3ccc(Oc4ccc(C)cc4)cc3)c3c(N)n[nH]c(=O)c32)C1 (centres unmarked) [Example 55] | < 100 | –
35 | C=CC(=O)N1CCC[C@@H](Nc2ncnc(N)c2-n2ncc3cc(Oc4ccccc4)ccc32)C1 [Example 18] | 1000 to 10000 | –
36 | N#CC(=CC1CC1)C(=O)N1CCC[C@@H](n2nc(-c3ccc(Oc4ccccc4)cc3)c3c(N)n[nH]c(=O)c32)C1 [Example 76] | < 100 | –
37 | C=CC(=O)Nc1ccc2ncn(-c3ncnc(Nc4ccc(OCCOC)cc4)n3)c2c1 [Example 27] | 1000 to 10000 | –
38 | C=CC(=O)N1CCCC(c2c3c(=O)[nH]nc(N)c3nn2-c2ccc(Oc3ccccc3)cc2)C1 (centres unmarked) [Example 78] | 100 to 1000 | –
39 | C=CC(=O)NC1CCCC(n2nc(-c3ccc(Oc4ccccc4)cc3)c3c(N)n[nH]c(=O)c32)C1 (centres unmarked) [Example 62] | < 100 | –
40 | C=CC(=O)N1CCC[C@@H](Nc2ncnc(N)c2-n2ncc3cc(OCCOC)ccc32)C1 [Example 19] | 1000 to 10000 | –

Row | Structure (SMILES) | IC50 [1] [nM] | IC50 [nM]
41 | COCCOc1ccc(Nc2ncc3[nH]c(CCN)nc3n2)cc1 [Example 23] | 1000 to 10000 | –
42 | C=CC(=O)N[C@H]1CC[C@@H](n2nc(-c3ccc(Oc4ccccc4)cc3)c3c(N)n[nH]c(=O)c32)CC1 [Example 57] | < 100 | –
43 | C=CC(=O)N1CCC[C@@H](n2nc(-c3ccc(Oc4ccccn4)cc3)c3c(N)n[nH]c(=O)c32)C1 [Example 32] | < 100 | –
44 | C=CC(=O)N1CCC[C@@H](n2nc(-c3ccc(C(=O)N4CCCC4)cc3)c3c(N)n[nH]c(=O)c32)C1 [Example 66] | < 100 | –
45 | C=CC(=O)N1CCCC(n2nc(-c3ccc(Oc4cccc(C)c4)cc3)c3c(N)n[nH]c(=O)c32)C1 (centres unmarked) [Example 67] | 1000 to 10000 | –
46 | CN(C)C/C=C/C(=O)N1CCC[C@@H](n2nc(-c3ccc(OC4Cc5ccccc5C4)cc3)c3c(N)n[nH]c(=O)c32)C1 [Example 75] | < 100 | –
47 | C=CC(=O)N1CCC[C@@H](n2nc(-c3ccc(-c4nc5ccccc5o4)cc3)c3c(N)n[nH]c(=O)c32)C1 [Example 88] | < 100 | –
48 | C=CC(=O)N1CCC[C@@H](Nc2ncnc3[nH]c(=O)c(-c4ccccc4)cc23)C1 [Example 2] | 1000 to 10000 | –
49 | C=CC(=O)N1CCCC(n2nc(-c3ccc(Oc4ccccc4)cc3)c3cc4c(N)ncnc4cc32)C1 (centres unmarked) [Example 108] | 1000 to 10000 | –
50 | C=CC(=O)N1CCCC(n2nc(-c3ccc(Oc4ccccc4F)cc3)c3c(N)n[nH]c(=O)c32)C1 (centres unmarked) [Example 71] | < 100 | –
51 | C=CC(=O)N1CCCC(n2nc(-c3ccc(Oc4ccccc4)cc3)c3c(N)nn(C)c(=O)c32)C1 (centres unmarked) [Example 85] | 100 to 1000 | –
52 | C=CC(=O)N1CCC[C@@H](n2nc(-c3ccc(Oc4ccc(F)cn4)cc3)c3c(N)n[nH]c(=O)c32)C1 [Example 44] | < 100 | –
53 | C=CC(=O)Nc1cccc2c1cnn2-c1nc(Nc2ccc(OCCOC)cc2)ncc1F [Example 13] | 1000 to 10000 | –
54 | C=CS(=O)(=O)N[C@H]1CC[C@@H](n2nc(-c3ccc(Oc4ccccn4)cc3)c3c(N)n[nH]c(=O)c32)CC1 [Example 39] | < 100 | –
55 | CN(C)C/C=C/C(=O)N[C@H]1CC[C@@H](n2nc(-c3ccc(Oc4ccccn4)cc3)c3c(N)n[nH]c(=O)c32)CC1 [Example 64] | 100 to 1000 | –
56 | C=CC(=O)N1CCC[C@@H](n2nc(-c3ccc(Oc4cccc(C)n4)cc3)c3c(N)n[nH]c(=O)c32)C1 [Example 92] | < 100 | –
57 | C=CC(=O)N1CCC[C@@H](n2nc(-c3ccc(Oc4cc(C)ccn4)cc3)c3c(N)n[nH]c(=O)c32)C1 [Example 89] | < 100 | –
58 | C=CC(=O)N1CCCC(c2nc3cnc(Nc4ccc(OCCOC)cc4)nc3[nH]2)C1 (centres unmarked) [Example 21] | 1000 to 10000 | –
59 | C=CC(=O)N1CCC[C@@H](Nc2ncnc(N)c2C(=O)c2ccc(Nc3ccccc3)cc2)C1 [Example 4] | 1000 to 10000 | –
